Measured values published in patent publication US20150104466A1, “CYTOMEGALOVIRUS DISINTEGRIN-LIKE PEPTIDES” (priority 2013, published 2015).

Columns and labels:
HCMV strain AD169 = experiment: Virus entry assay: HCMV infectivity by IE gene expression (immunofluorescence); assay type: cell-based, Human cytomegalovirus; conditions: NHDFs treated with peptide or antibody prior to HCMV challenge
Experimental: (§1) For CMV entry assays, subconfluent cells were grown on glass coverslips in 12-well plates. Integrin neutralizing antibodies or peptides were incubated in serum-free DMEM with cell monolayer for 30 minutes at 37° C. Cells were washed with phosphate-buffered saline (PBS) and incubated with HCMV strain AD169, MCMV Smith strain, or MCMV-GFP for 60 minutes at 37° C. Any non-penetrated virus was inactivated with low-pH citrate buffer (40 mM citric acid, 10 mM KCl, 135 mM NaCl, pH 3.0). The cells were incubated 20-24 hours at 37° C. in DMEM supplemented with 2% bovine calf serum (BCS). […] Experiments were performed in triplicate with a minimum of 1000 cells scored per coverslip. […] Cells were incubated 6 hours at 37° C. in DMEM supplemented with 10% BCS prior to lysis (100 mM sodium phosphate, 10 mM KCl, 1 mM magnesium sulfate, 0.1% NP-40, pH 7.4). β-galactosidase activity was measured by addition of o-nitrophenyl-β-D-galactopyranoside (ONPG) and the absorbance was monitored at 420 nm.
FIG. 2A presents the results of a series of assays wherein NHDFs were treated with HCMV gB disintegrin-like peptide, gB disintegrin-like Null peptide, RGD, or RGE peptide prior to HCMV challenge (as indicated in the FIG. 2A). Infectivity was determined by IE gene expression. […]

NHDF cells = experiment: Cytoskeletal rearrangement in NHDF cells (actin staining with phalloidin); assay type: cell-based, human; conditions: compared to buffer alone
Description: gBDLD Triggers Cytoskeletal Rearrangements: β1 integrins are known inducers of broad signal transduction events. […] To test the role of gBDLD in mediating signaling events, we stimulated NHDF cells with buffer alone, gBDLD, or a known cytoskeletal reorganizer (EGF), followed by actin staining with phalloidin.

MCMV = experiment: Virus entry assay: MCMV infectivity (e1-positive cells); assay type: cell-based, Murine cytomegalovirus; conditions: mouse fibroblasts (murine 3T3) treated with peptide, then MCMV challenge
Experimental: as §1
FIG. 4B is a histogram showing the results of an assay wherein GD25, GD25β1 and 3T3 cells were treated with β1, β3, and β1+β3 antibodies, followed by MCMV infection. As described above, infectivity was determined by scoring e1-(early protein) positive cells. […]

HSV-1(KOS)gL86 = experiment: HSV entry assay (β-galactosidase activity); assay type: cell-based, herpes simplex virus-1; conditions: cells treated with peptide, then HSV-1 challenge
Experimental: For CMV entry assays, subconfluent cells were grown on glass coverslips in 12-well plates. Integrin neutralizing antibodies or peptides were incubated in serum-free DMEM with cell monolayer for 30 minutes at 37° C. Cells were washed with phosphate-buffered saline (PBS) and incubated with HCMV strain AD169, MCMV Smith strain, or MCMV-GFP for 60 minutes at 37° C. Any non-penetrated virus was inactivated with low-pH citrate buffer (40 mM citric acid, 10 mM KCl, 135 mM NaCl, pH 3.0). The cells were incubated 20-24 hours at 37° C. in DMEM supplemented with 2% bovine calf serum (BCS). Immunofluorescence analysis was performed as previously described^28 with either mouse anti-IE monoclonal antibody 1203, mouse anti-pp65 monoclonal antibody or rabbit anti-MCMV el polyclonal, followed by detection with a fluorescein-conjugated goat anti-mouse secondary or a fluorescein-conjugated goat anti-rabbit secondary antibody. Nuclei were stained with 300 nM 4′,6-diamidino-2-phenylindole (DAPI). Experiments were performed in triplicate with a minimum of 1000 cells scored per coverslip. […] Cells were incubated 6 hours at 37° C. in DMEM supplemented with 10% BCS prior to lysis (100 mM sodium phosphate, 10 mM KCl, 1 mM magnesium sulfate, 0.1% NP-40, pH 7.4). β-galactosidase activity was measured by addition of o-nitrophenyl-β-D-galactopyranoside (ONPG) and the absorbance was monitored at 420 nm.

HCMV AD 169 = experiment: Virus binding assay: HCMV attachment to NHDF cells at 4° C. (gB ELISA); assay type: cell-based, Human cytomegalovirus; conditions: 1 mM peptide, 1:50 DE9, α2 and α6 antibodies 20 μg/mL
Experimental: NHDF cells were grown in 96-well plates and treated with integrin-neutralizing antibodies, peptides, or heparin for 60 minutes at 4° C. Cells were then challenged with HCMV AD 169 at a multiplicity of infection (MOI) of 5 pfu/cell for 60 minutes at 4° C. Unbound virus was removed and cells were washed and fixed with 3% paraformaldehyde. Bound HCMV was detected with monoclonal antibody 27-78, horseradish peroxidase (HRP)-conjugated goat anti-mouse secondary antibody, and ImmunoPure TMB Substrate Kit (Pierce, Rockford, Ill.). Absorbance was measured at 450 nm. All experiments were performed in triplicate.
During virus infection, integrins are utilized as primary viral attachment receptors or as post-attachment (fusion-activating) or internalization receptors.^11 To determine at which step in the HCMV entry pathway integrins are functioning, cell binding (i.e., attachment) experiments were performed, as well as assays to measure viral payload delivery into the cytoplasm (internalization). For the binding assays, virus was bound at 4° C. to allow for stable virus binding, but to restrict fusion and internalization. The results are depicted in FIG. 6A. […] Attachment was measured by gB ELISA.

HCMV = experiment: Viral payload delivery: pp65 localization in fibroblasts after HCMV infection; assay type: cell-based, Human cytomegalovirus; conditions: human fibroblasts treated, then infected with HCMV
Experimental: as §1
Next, an assay was performed that directly measured delivery of an internal virion component. […] FIG. 6B is a histogram showing the results of a series of assays wherein human fibroblasts were treated with various integrin-blocking agents, infected with HCMV, and then assayed for viral payload as measured by pp65 localization. […]

AVCSMAGGTAAIRAERNIIC (listed as Human cytomegalovirus) [gB disintegrin-like null peptide, null peptide containing alanine substitutions in the disintegrin-like consensus residues, reference compound]
inhibition of HCMV infectivity compared to infectivity seen with no treatment (HCMV strain AD169): HCMV was able to infect

EGF: a known cytoskeletal reorganizer [reference compound]
reorganization of the cytoskeleton (NHDF cells): triggered a dramatic reorganization of the cytoskeleton

RVCSMAQGTDLIRFERNIIC (listed as Human cytomegalovirus) [gB disintegrin-like peptide, 20 amino acid synthetic peptide encompassing the HCMV gB disintegrin-like domain]
inhibition of HCMV infectivity compared to infectivity seen with no treatment (HCMV strain AD169): dose-dependent inhibitory response to infection | MCMV infectivity after peptide treatment (MCMV): dramatic reduction in MCMV infectivity | ability of HSV-1 to infect cells after peptide treatment (HSV-1(KOS)gL86): no effect | HCMV attachment (binding) to host cells (HCMV AD 169): no effect on HCMV attachment | uptake of pp65 tegument protein (HCMV): little uptake of the pp65 tegument protein
